Converted amounts (≈) assume the structure as drawn. The source made the active and inactive calls. The calls are words filed in the database; no cut-off is given here.
Assays:
[1] = test system: Mycobacterium tuberculosis; assay: Antimycobacterial activity against Mycobacterium tuberculosis H37Rv; format: functional
Vero = assay: Cytotoxicity against Vero cells after 48 hrs by XTT method; format: cell-based; conditions: Chlorocebus sabaeus
[2] = Selectivity index, ratio of IC50 for Vero cells to MIC of Mycobacterial tuberculosis H37Rv; format: functional
[3] = test system: Mycobacterium tuberculosis; assay: Ratio of kcat to Km of Mycobacterium tuberculosis mycothiol reductase; parameters: unit not given here
[4] = test system: Mycobacterium tuberculosis; assay: Activity of Mycobacterium tuberculosis mycothiol reductase
[5] = test system: Mycobacterium tuberculosis; assay: Antimycobacterial activity against Mycobacterium tuberculosis H37Rv at MIC; format: functional
[6] = test system: Mycobacterium tuberculosis; assay: Activity of Mycobacterium tuberculosis mycothiol reductase upto 800 uM

Work on `Cc1ccc2c(c1O)C(=O)C=CC2=O` yielded an MIC [1] of 5 µg/mL (≈ 26.6 µM), an IC50 (Vero) of 3.1 µg/mL (≈ 16.5 µM) and a Ratio [2] of 0.63.

In the case of `CC(=O)Oc1cc(C)cc2c1C(=O)C=CC2=O`, the MIC [1] was 2.5 µg/mL (≈ 10.9 µM), the IC50 (Vero) was 6 µg/mL (≈ 26.1 µM) and the kcat/Km [3] was 8.15e+07. It also gave a Km [4] of 389 µM, a kcat [4] of 3.17 s⁻¹ and an Activity [5] of 99.9%. For the same molecule, the Ratio [2] was 2.4.

Work on `CC(=O)Oc1cc(C)c(Cl)c2c1C(=O)C=CC2=O` yielded an MIC [1] of 10 µg/mL (≈ 37.8 µM), an IC50 (Vero) of 6.3 µg/mL (≈ 23.8 µM) and an Activity [5] of 99.9%. It also gave a Ratio [2] of 0.63.

`COc1cc(C)cc2c1C(=O)C=CC2=O` showed an MIC [1] of 15 µg/mL (≈ 74.2 µM), an IC50 (Vero) of 5.8 µg/mL (≈ 28.7 µM) and an Activity [5] of 99.9%. The Ratio [2] was 0.39.

In the case of `CC(=O)Oc1cc(OC(C)=O)c2c(OC(C)=O)c(C)cc(Cl)c2c1OC(C)=O`, the MIC [1] was > 20 µg/mL, the IC50 (Vero) was 149 µg/mL (≈ 365 µM) and the Activity [5] was 99.9%.

With `COc1cc(C)c(Cl)c2c1C(=O)C=CC2=O` the MIC [1] was > 20 µg/mL, the IC50 (Vero) was 7.7 µg/mL (≈ 32.5 µM) and the kcat/Km [3] was 3.3e+06. It also gave a Km [4] of 435 µM, a kcat [4] of 0.142 s⁻¹ and an Activity [5] of 99.9%.

In the case of `CCOc1c(C)cc(Cl)c2c1C(=O)C=CC2=O`, the MIC [1] was 15 µg/mL (≈ 59.8 µM), the IC50 (Vero) was 12.5 µg/mL (≈ 49.9 µM) and the Activity [5] was 99.9%. The Ratio [2] was 0.83.

Work on `CCOc1cc(C)cc2c1C(=O)C=CC2=O` yielded an MIC [1] of 15 µg/mL (≈ 69.4 µM), an IC50 (Vero) of 6.3 µg/mL (≈ 29.1 µM) and an Activity [5] of 99.9%. For the same molecule, the Ratio [2] was 0.42.

For `CCOc1cc(C)c(Cl)c2c1C(=O)C=CC2=O`, the MIC [1] was > 20 µg/mL, the IC50 (Vero) was 36.1 µg/mL (≈ 144 µM) and the Activity [5] was 99.9%.

In the case of `CC(=O)Oc1cc(OC(C)=O)c2c(OC(C)=O)cc(C)cc2c1OC(C)=O`, the MIC [1] was > 20 µg/mL, the IC50 (Vero) was 17.2 µg/mL (≈ 45.9 µM) and the Activity [5] was 99.9%.

With `COc1c(C)cc(Cl)c2c1C(=O)C=CC2=O` the MIC [1] was 15 µg/mL (≈ 63.4 µM), the IC50 (Vero) was 8 µg/mL (≈ 33.8 µM) and the Activity [5] was 99.9%. For the same molecule, the Ratio [2] was 0.54.

With `CC(=O)Oc1cc(OC(C)=O)c2c(OC(C)=O)cc(C)c(Cl)c2c1OC(C)=O` the MIC [1] was > 20 µg/mL, the IC50 (Vero) was 27.8 µg/mL (≈ 68 µM) and the Activity [5] was 99.9%.

Molecule `CC(=O)Oc1c(C)cc(Cl)c2c1C(=O)C=CC2=O` has an MIC [1] of 10 µg/mL (≈ 37.8 µM), an IC50 (Vero) of 21.1 µg/mL (≈ 79.7 µM) and an Activity [5] of 99.9%. It also gave a Ratio [2] of 2.1.

`Cc1cc(O)c2c(c1)C(=O)C(O)=CC2=O` gave an MIC [1] of 5 µg/mL (≈ 24.5 µM), an IC50 (Vero) of 3.1 µg/mL (≈ 15.2 µM) and an Activity [5] of 99.9%. For the same molecule, the Ratio [2] was 0.63.

Molecule `Cc1cc(O)c2c(c1Br)C(=O)C=CC2=O` [5-BROMO-8-HYDROXY-6-METHYLNAPHTHALENE-1,4-DIONE] has an MIC [1] of 5 µg/mL (≈ 18.7 µM), an IC50 (Vero) of 3.6 µg/mL (≈ 13.5 µM) and a Ratio [2] of 0.71.

For `Cc1cc(O)c2c(c1Cl)C(=O)C=CC2=O` [5-CHLORO-8-HYDROXY-6-METHYLNAPHTHALENE-1,4-DIONE], the MIC [1] was 10 µg/mL (≈ 44.9 µM), the IC50 (Vero) was 2.5 µg/mL (≈ 11.2 µM) and the kcat/Km [3] was 9.1e+06. It also gave a Km [4] of 233 µM, a kcat [4] of 0.212 s⁻¹ and a Ratio [2] of 0.25.

For `Cc1cc(O)c2c(c1F)C(=O)C=CC2=O` [5-FLUORO-8-HYDROXY-6-METHYLNAPHTHALENE-1,4-DIONE], the MIC [1] was 10 µg/mL (≈ 48.5 µM), the IC50 (Vero) was 7.6 µg/mL (≈ 36.9 µM) and the Ratio [2] was 0.76.

`Cc1cc(Cl)c2c(c1O)C(=O)C=CC2=O` [8-CHLORO-5-HYDROXY-6-METHYLNAPHTHALENE-1,4-DIONE] showed an MIC [1] of 5 µg/mL (≈ 22.5 µM), an IC50 (Vero) of 4.6 µg/mL (≈ 20.7 µM) and a kcat/Km [3] of 1.64e+08. The Km [4] was 36 µM, the kcat [4] was 0.592 s⁻¹ and the Activity [5] was 99.9%. The Ratio [2] was 0.92.

With `Cc1cc(O)c2c(c1)C(=O)C(c1c(C)cc3c(c1O)C(=O)C=CC3=O)=CC2=O` [DIOSPYRIN] the MIC [1] was 8 µg/mL (≈ 21.4 µM), the IC50 (Vero) was 17.8 µg/mL (≈ 47.5 µM) and the kcat/Km [3] was 3.57e+07. For the same molecule, the Km [4] was 33 µM, the kcat [4] was 0.118 s⁻¹ and the Ratio [2] was 2.2.

With `CC[C@@H](CO)NCCN[C@@H](CC)CO` [ETHAMBUTOL] the MIC [1] was 2 µg/mL (≈ 9.79 µM), the IC50 (Vero) was > 150 µg/mL and the Activity [5] was 99.9%. The Ratio [2] was >75.

In the case of `NNC(=O)c1ccncc1` [ISONIAZID], the MIC [1] was 0.2 µg/mL (≈ 1.46 µM), the IC50 (Vero) was > 200 µg/mL and the Activity [5] was 99.9%. The Ratio [2] was >1000.

Work on `CC1=CC(=O)c2ccccc2C1=O` [MENADIONE] yielded an MIC [1] of 5 µg/mL (≈ 29 µM), an IC50 (Vero) of 6.5 µg/mL (≈ 37.8 µM) and a kcat/Km [3] of 1.52e+07. It also gave a Km [4] of 483 µM, a kcat [4] of 0.732 s⁻¹ and an Activity [5] of 99.9%. It also gave a Ratio [2] of 1.3.

`O=C1C=CC(=O)c2ccccc21` [NAPHTHOQUINONE] gave an MIC [1] of 1 µg/mL (≈ 6.32 µM), an IC50 (Vero) of 1.2 µg/mL (≈ 7.59 µM) and a kcat/Km [3] of 3.36e+07. For the same molecule, the Km [4] was 324 µM, the kcat [4] was 1.09 s⁻¹ and the Activity [5] was 99.9%. The Ratio [2] was 1.19.

`Cc1cc(O)c2c(c1)C(=O)C=C(c1c(C)cc(O)c3c1C(=O)C=CC3=O)C2=O` [NEODIOSPYRIN] gave an MIC [1] of 10 µg/mL (≈ 26.7 µM), an IC50 (Vero) of 32 µg/mL (≈ 85.5 µM) and a kcat/Km [3] of 4.88e+07. For the same molecule, the Km [4] was 63 µM, the kcat [4] was 0.308 s⁻¹ and the Ratio [2] was 3.2.

`Cc1cc(O)c2c(c1)C(=O)C=CC2=O` [RAMENTACEONE] gave an MIC [1] of 0.5 µg/mL (≈ 2.66 µM), an IC50 (Vero) of 15.1 µg/mL (≈ 80.2 µM) and a kcat/Km [3] of 9.31e+07. It also gave a Km [4] of 254 µM, a kcat [4] of 2.37 s⁻¹ and a Ratio [2] of 30.22.

For `Cc1cc(O)c2c(c1)[C@H](O)CCC2=O` [SHINANOLONE], the MIC [1] was > 100 µg/mL, the Activity [5] was 99.9% and the Activity [6] was “inactive”.

In the case of `CN[C@@H]1[C@H](O[C@H]2[C@H](O[C@H]3[C@H](O)[C@@H](O)[C@H](N=C(N)N)[C@@H](O)[C@@H]3N=C(N)N)O[C@@H](C)[C@]2(O)C=O)O[C@@H](CO)[C@H](O)[C@H]1O` [STREPTOMYCIN], the MIC [1] was 1 µg/mL (≈ 1.72 µM), the IC50 (Vero) was > 120 µg/mL and the Activity [5] was 99.9%. For the same molecule, the Ratio [2] was >120.

Source: ChEMBL document CHEMBL1137533, “Activity of 7-methyljuglone derivatives against Mycobacterium tuberculosis and as subversive substrates for mycothiol disulfide reductase” (Bioorg Med Chem, 2007)
